Data on 4 compounds can be found in patent US3992379A, “4-Alkyldioxyalkylene-5-benzylpyrimidines” (Ludwig Heumann & Co. GmbH, priority 1973, dated 1976).

For data set [1] the following is noted: J. Med. Pharm. Chem. 5, p. 1118, Tab. 9; cited from earlier work.
A further data set can be described thus: physchem. The settings on record: water.
A further data set in a line: in vivo. The settings on record: rat, rats.
Another data set concerns 25 coli strains. In words: Anti-bacterial action test with discs impregnated with 25 μg of substance (arresting circle diameter). The data set is classed as cell-based. Conditions: mean (x) over 25 coli strains. How it is done:
The test for anti-bacterial action […] was performed with discs which were each impregnated with 25 μg of the two substances A and B: […]

Data set [2] is described as follows: Anti-bacterial action, general statement. The settings on record: in words; compared with conventional bactericide 5-nitro-8-hydroxycholine. An excerpt: These physical properties are required in order to meet the fundamental needs for resorption required in oral adminstration.
Data set [3] can be described thus: Toxicity, general statement. The settings on record: in words; compared with conventional bactericide 5-nitro-8-hydroxycholine.

Molecules are shown by their SMILES. Converted amounts (≈) assume the structure as drawn.

The term solubility denotes the concentration that dissolves in the medium under given conditions. A low value points to little dissolved substance. Consider `COc1cc(Cc2cnc(N)nc2N)cc(OC)c1OC` [2,4-diamino-5-(3',4',5'-trimethoxy-benzyl)-pyrimidine], for which, in data set [1], the bactericidal activity entry is recorded as “such activity is present in the maximum degree”. In the data set “physchem”, the solubility is 670 µg/mL (≈ 2.31 mM).
The term LD50 denotes the dose at which mortality reaches 50%. In general, zone of inhibition refers to the extent of the growth-free halo in a diffusion test. A low value points to little suppression of growth. As to `O=[N+]([O-])c1ccc(O)c2ncccc12` [substance A, 5-nitro-8-hydrocholine], in “in vivo”, the LD50 stood at 830 mg/kg. In the data set with 25 coli strains, the zone of inhibition at 25 µg/disc came out at 20.7 mm.
As to `COCCOc1c(OC)cc(Cc2cnc(N)nc2N)cc1OC` [substance B, 2,4-diamino-5-(3',5'-dimethoxy-4'-methyldioxyethylene-benzyl)-pyrimidine], the zone of inhibition at 25 µg/disc with 25 coli strains was 28.5 mm. The anti-bacterial action entry in data set [2] is given as “improved anti-bacterial action”. Further, the degree of toxicity result in data set [3] is recorded as “substantially lower degree of toxicity”. In the data set “physchem”, the concentration in solution (solubility) came to 8000 µg/mL (≈ 23.9 mM).
Consider `COc1ccc(Cc2cnc(N)nc2N)cc1OC` [2,4-diamino-5-(3'-4'-dimethoxybenzyl)-pyrimidine], for which the bactericidal activity entry in data set [1] was “has bactericidal activity”.
